The values below are quoted from earlier work in patent publication US11407830B2, “Methods of treating cancer with anti-PD-1 antibodies” (TESARO, INC., priority 2017, dated 2022).

The test system of data set [1] is PARP activity in various cell lines.
Data set [2] deals with non-small-cell lung cancer, melanoma, and renal-cell cancer. The note with it: Phase I clinical trial.

As usually defined, the IC50 is the concentration needed to halve the response being measured. On to `NC(=O)c1cccc2cn(-c3ccc([C@@H]4CCCNC4)cc3)nc12` [Niraparib, (3 S)-3-[4-{7-(aminocarbonyl)-2H-indazol-2-yl}phenyl]piperidine], for which the IC50 in data set [1] (read-out: IC50, PARP activity in cells, hydrogen peroxide DNA damage) is roughly 4 nM. In data set [1] (read-out: inhibitory concentration at 90% of control (IC90), PARP activity in cells, hydrogen peroxide DNA damage), the IC90 was roughly 50 nM. On to “nivolumab: monoclonal antibody targeting PD-1”, for which, in data set [2], the tumor response result is listed as “complete or partial responses”.
